According to patent US20050208597A1, “Microarray analysis of post-translational modifications” (The Board of Trustees of the Leland Stanford Junior …, priority 2004, published 2005):

Experiments:
Type in all cases: cell-based
[1] = tested on: Akt (Ser473) phosphorylation; test: RPP microarray, phospho-specific antibody probing of cell lysates
Experimental: (§1) FIG. 2. Applications of reverse-phase protein microarrays. (A) Kinetics of PLCγ1 (Y783) phosphorylation in Jurkat T cells following stimulation with anti-CD3 (pink triangle), anti-CD28 (green circle), both antibodies (blue squares), or isotype control antibodies (empty squares) over 30 minutes. Left panel: Phosphorylation kinetics unadjusted for total PLCγ1 levels. Middle Panel: Total PLCγ1 levels. Right panel: Ratiometric data on phosphorylation kinetics (phospho-PLCγ1/total PLCγ1). See text for details. (B) Phosphorylation kinetics of four signaling proteins (PLCγ1, Akt, MEK1/2, and p44/42 MAPK) in wildtype Jurkat T cells (black square) and J.gamma1, a mutant Jurkat line deficient in PLCγ1 (empty circle), stimulated with both anti-CD3 and CD28 antibodies. […] Jurkats T cells were stimulated with either anti-CD3 or anti-CD28 antibodies in the presence of one of three kinase inhibitors (see text for details). Lysates were collected after 10 minutes of stimulation, spotted on slides, and probed with four phospho-specific antibodies. Representative spots of p-p44/42 MAPK and p-MEK1/2 are shown for anti-CD3 stimulated cells and p-Akt (Ser473) and p-PDK1 for anti-CD28 treated cells.
(§2) To fabricate the protein microarrays, we used a contact-printing robotic microarrayer to deliver nanoliter (˜6 nl) volumes of whole cell lysates onto nitrocellulose-coated slides. FAST slides (Schleicher and Schuell BioSciences, Dassel, Germany). Depending on the experimental setup, two different formats of FAST slides were used. In experiments where the number of samples was greater than the number of analytes measured, slides with a single pad capable of holding over 2000 lysate spots were used. In our screening experiments where the number of analytes exceeds the number of samples, we used slides carrying eight sectored pads or subarrays for multiplex analysis. Under our current configuration, a maximum of 24 spots can be fitted onto each individual pad (6 mm×6 mm).
(§3) For small-scale experiments, we used a precision 8-pin manual microarrayer system (Microcaster system from Schleicher & Schuell). […] The protein lysates dried within seconds of printing and were tightly bound to the nitrocellulose platform via electrostatic interactions.

[2] = tested on: MEK1/2 phosphorylation; test: as above
Experimental: as §1, §2, §3

[3] = tested on: PDK1 phosphorylation; test: as above; conditions: Jurkat cells stimulated through CD28 in the presence of the inhibitor; lysates after 10 minutes; one of the 'other 3 kinases' (named)
Experimental: as §1, §2, §3

[4] = tested on: p44/42 MAPK phosphorylation; test: as above
Experimental: as §1, §2, §3

[5] = tested on: SLP-76; test: RPP microarray, phosphorylation-state independent antibody; conditions: PMA treated vs untreated Jurkat T cells
Source text: (§4) FIG. 1. Protein microarray performance characteristics and validation. (A) Four purified antigens spotted in triplicate over six 2-fold dilutions starting at 900 pg per spot and probed with their corresponding antibodies. (B) Quantitative comparison between Western immunoblotting and protein microarray for measuring Hsp70 induction in heat-shocked Jurkat T cells. (C) Detection of changes in phosphorylation in signaling proteins in PMA treated vs. untreated Jurkat T cells. Corresponding immunoblots of the same samples are shown on the right. Antibodies specific for p44/42 MAPK, MEK1/2 and Akt are phosphorylation-state dependent. Antibodies for SLP-76 and β-actin are not dependent on phosphorylation.
(§5) To fabricate the protein microarrays, we used a contact-printing robotic microarrayer to deliver nanoliter (˜6 nl) volumes of whole cell lysates onto nitrocellulose-coated slides. […] In experiments where the number of samples was greater than the number of analytes measured, slides with a single pad capable of holding over 2000 lysate spots were used. […]
(§6) For small-scale experiments, we used a precision 8-pin manual microarrayer system (Microcaster system from Schleicher & Schuell). The resulting features measured approximately 500 μm in diameter. […] Bound primary antibodies were detected with a horseradish peroxidase (HRP)-linked secondary antibody. […]

[6] = tested on: β-actin; test: as above; conditions: PMA treated vs untreated Jurkat T cells
Source text: as §4, §5, §6

[7] = Jurkat cells stimulated through CD3 in the presence of the inhibitor, lysates after 10 minutes
[8] = PMA treated vs untreated Jurkat T cells

Compound | phosphorylation of Akt (Ser473) ([1]; Jurkat cells stimulated through CD28 in the presence of the inhibitor, lysates after 10 minutes) | phosphorylation of MEK1/2 [2, 7] | phosphorylation of PDK1 [3] | phosphorylation of p44/42 MAPK [4, 7] | phosphorylation of Akt/PKB [1, 8] | phosphorylation of MEK1/2 [2, 8] | phosphorylation of p44/42 MAPK [4, 8] | abundance of SLP-76 [5] | abundance of β-actin [6]
N#CC(=C(/N)Sc1ccccc1N)/C(C#N)=C(\N)Sc1ccccc1N [U0126] | had no effect | had no effect | had no effect | specifically blocked |  |  |  |  | 
CCCCCCCCCCCCCC(=O)O[C@@H]1[C@@H](C)[C@@]2(O)[C@@H](C=C(CO)C[C@]3(O)C(=O)C(C)=C[C@@H]23)[C@@H]2C(C)(C)[C@]12OC(C)=O [PMA, phorbol 12-myristate 13-acetate] |  |  |  |  | not significantly affected | rapid phosphorylation | rapid phosphorylation | no changes | no changes
